Values joined by “and” are separate entries in the source; they are usually repeats but may differ in a detail not shown here. Identical values can stand only once.
Target: human DPP1 enzyme (Homo sapiens (Human), UniProt P53634)
Assay: Activity on human recombinant DPP1 isolated enzyme assay (H-Gly-Arg-AMC cleavage, fluorescence)
Type: biochemical
Details: 0.35 nM human DPP1, 300 μM H-Gly-Arg-AMC, 30 min pre-incubation at 25° C., pH 5.0
Method: Human DPP1 enzyme activity was determined by measuring release of the fluorophore aminomethyl coumarin (AMC) following enzymatic cleavage of the dipeptide substrate H-Gly-Arg-AMC. Assays were performed in black 384 well plates in 25 mM piperazine buffer, pH 5.0, containing 50 mM NaCl, 0.01% (v/v) Triton X100, 5 mM DTT with 0.35 nM human DPP1 enzyme, 300 μM H-Gly-Arg-AMC substrate (˜Km concentration) and test compounds at 0.51-10000 nM concentration range. Human DPP1 was pre-incubated with test compounds for 30 minutes at 25° C. prior to substrate incubation for a further 40 minutes at 25° C. Enzyme activity was determined by measuring fluorescence of the AMC product at excitation and emission wavelengths of 380 nm and 460 nm using a BMG LABTECH PHERA star plate reader. Test compound potencies are reported in Table 15 as pIC50 values generated from 4-parameter sigmoidal curve fitting of the measured concentration-inhibition responses.

Sequence of human DPP1 enzyme (P53634 231-394): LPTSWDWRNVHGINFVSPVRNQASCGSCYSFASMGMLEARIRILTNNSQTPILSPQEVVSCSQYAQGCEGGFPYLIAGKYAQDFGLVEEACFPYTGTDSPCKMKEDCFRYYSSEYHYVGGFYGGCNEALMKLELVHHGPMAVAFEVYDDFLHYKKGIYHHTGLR
Sequence of human DPP1 enzyme (P53634 25-134): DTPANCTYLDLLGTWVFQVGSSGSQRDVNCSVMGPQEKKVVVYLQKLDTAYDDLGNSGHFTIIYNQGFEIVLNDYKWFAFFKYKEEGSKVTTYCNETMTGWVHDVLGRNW
Sequence of human DPP1 enzyme (P53634 395-463): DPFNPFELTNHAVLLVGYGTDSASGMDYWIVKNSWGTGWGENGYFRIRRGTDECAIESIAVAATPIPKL

Question: How did the “h DPP1 pIC50” value turn out when `N#C[C@H](Cc1ccc(-c2ccc3c(c2)C2(CCN(C4COC4)CC2)OC3)cc1F)NC(=O)C1(C(F)F)CNC1` [Example 15, (S)-N-(1-cyano-2-(2-fluoro-4-(1′-(oxetan-3-yl)-3H-spiro[isobenzofuran-1,4′-piperidin]-6-yl)phenyl)ethyl)-3-(difluoromethyl)azetidine-3-carboxamide] was run?
Answer: The value was “++++ (h DPP1 pIC50 higher than 8)”.

Question: For `CN1C(=O)Cc2ccc(-c3ccc(C[C@@H](C#N)NC(=O)C4(C(F)F)CNC4)c(F)c3)cc21` [Example 16, (S)-N-(1-cyano-2-(2-fluoro-4-(1-methyl-2-oxoindolin-6-yl)phenyl)ethyl)-3-(difluoromethyl)azetidine-3-carboxamide], which “h DPP1 pIC50” value is on record?
Answer: The value was “++++ (h DPP1 pIC50 higher than 8)”.

Question: With `COC1(C(=O)N[C@H](C#N)Cc2ccc(-c3ccc(C#N)cc3)cc2)CN(C)C1` [Example 24, (S)-N-(1-cyano-2-(4′-cyano-[1,1′-biphenyl]-4-yl)ethyl)-3-methoxy-1-methylazetidine-3-carboxamide] as the compound, how does the “h DPP1 pIC50” value read?
Answer: Its value is “++++ (h DPP1 pIC50 higher than 8)”.

Same assay, conditions: 0.35 nM human DPP1, 300 μM H-Gly-Arg-AMC, 30 min pre-incubation at 25° C., pH 5.0; read-out: h DPP1 pIC50 (converted)

Question: For `COC1(C(=O)NC(C#N)Cc2ncc(-c3ccc(C#N)cc3)cc2F)CN(C)C1` (racemic) [Example 43, N-(1-cyano-2-(5-(4-cyanophenyl)-3-fluoropyridin-2-yl)ethyl)-3-methoxy-1-methylazetidine-3-carboxamide], which IC50 is on record?
Answer: The IC50 was 10 to 100 nM.

Question: For `COC1(C(=O)NC(C#N)Cc2ncc(-c3ccc(C#N)cc3)cc2F)CN(C)C1` (single isomer, unassigned; enantiomer 1) [Example 44, enantiomer 1 of N-(1-cyano-2-(5-(4-cyanophenyl)-3-fluoropyridin-2-yl)ethyl)-3-methoxy-1-methylazetidine-3-carboxamide], which IC50 is on record?
Answer: Its IC50 is 10 to 100 nM.

Question: For `COC1(C(=O)NC(C#N)Cc2ncc(-c3ccc(C#N)cc3)cc2F)CN(C)C1` (single isomer, unassigned; enantiomer 2) [Example 45, Enantiomer 2 of N-(1-cyano-2-(5-(4-cyanophenyl)-3-fluoropyridin-2-yl)ethyl)-3-methoxy-1-methylazetidine-3-carboxamide], which IC50 is on record?
Answer: Its IC50 is 1000 to 10000 nM.

Question: Which IC50 does the source give for `N#Cc1ccc(-c2ccc(C[C@@H](C#N)NC(=O)C3(O)CNC3)cc2)cc1` [Example 1, (S)-N-(1-cyano-2-(4′-cyano-[1,1′-biphenyl]-4-yl)ethyl)-3-hydroxyazetidine-3-carboxamide] here?
Answer: The IC50 was 100 to 1000 nM.

Question: How did the IC50 turn out when `N#Cc1ccc(-c2ccc(C[C@@H](C#N)NC(=O)C3(F)CNC3)cc2)cc1` [Example 2, (S)-N-(1-cyano-2-(4′-cyano-[1,1′-biphenyl]-4-yl)ethyl)-3-fluoroazetidine-3-carboxamide] was run?
Answer: The IC50 was 100 to 1000 nM.

Question: How did the IC50 turn out when `CC1NCC1C(=O)N[C@H](C#N)Cc1ccc(-c2ccc(C#N)cc2)cc1` (stereo partly drawn) [Example 3, N-((S)-1-cyano-2-(4′-cyano-[1,1′-biphenyl]-4-yl)ethyl)-2-methylazetidine-3-carboxamide] was run?
Answer: Its IC50 is 1000 to 10000 nM.

Question: How did the IC50 turn out when `CC1(C)NCC1C(=O)N[C@H](C#N)Cc1ccc(-c2ccc(C#N)cc2)cc1` (stereo partly drawn) [Example 4, N-((S)-1-cyano-2-(4′-cyano-[1,1′-biphenyl]-4-yl)ethyl)-2,2-dimethylazetidine-3-carboxamide] was run?
Answer: Its IC50 is 1000 to 10000 nM.

Question: Which IC50 does the source give for `CCC1(C(=O)N[C@H](C#N)Cc2ccc(-c3ccc(C#N)cc3)cc2)CNC1` [Example 5, (S)-N-(1-cyano-2-(4′-cyano-[1,1′-biphenyl]-4-yl)ethyl)-3-ethylazetidine-3-carboxamide] here?
Answer: Its IC50 is 100 to 1000 nM.

Question: With `COC1(C(=O)N[C@H](C#N)Cc2ccc(-c3ccc(C#N)cc3)cc2)CNC1` [Example 6, (S)-N-(1-cyano-2-(4′-cyano-[1,1′-biphenyl]-4-yl)ethyl)-3-methoxyazetidine-3-carboxamide] as the compound, how does the IC50 read?
Answer: Its IC50 is 10 to 100 nM.

Question: `N#Cc1ccc(-c2ccc(C[C@@H](C#N)NC(=O)C3(C(F)F)CNC3)cc2)cc1` [Example 7, (S)-N-(1-cyano-2-(4′-cyano-[1,1′-biphenyl]-4-yl)ethyl)-3-(difluoromethyl)azetidine-3-carboxamide] was tested. Which IC50 did it give?
Answer: The IC50 was 10 to 100 nM.

Question: Which IC50 does the source give for `N#Cc1ccc(-c2ccc(C[C@@H](C#N)NC(=O)C3(CF)CNC3)cc2)cc1` [Example 8, (S)-N-(1-cyano-2-(4′-cyano-[1,1′-biphenyl]-4-yl)ethyl)-3-(fluoromethyl)azetidine-3-carboxamide] here?
Answer: The IC50 was 10 to 100 nM.

Question: How did the IC50 turn out when `N#Cc1ccc(-c2ccc(C[C@@H](C#N)NC(=O)C3CNC3)cc2)cc1` [Example 9, (S)-N-(1-cyano-2-(4′-cyano-[1,1′-biphenyl]-4-yl)ethyl)azetidine-3-carboxamide] was run?
Answer: Its IC50 is 1000 to 10000 nM and 100 to 1000 nM.

Question: With `COCC1(C(=O)N[C@H](C#N)Cc2ccc(-c3ccc(C#N)cc3)cc2)CNC1` [Example 10, (S)-N-(1-cyano-2-(4′-cyano-[1,1′-biphenyl]-4-yl)ethyl)-3-(methoxymethyl)azetidine-3-carboxamide] as the compound, how does the IC50 read?
Answer: Its IC50 is 1000 to 10000 nM.

Question: For `CCOC1(C(=O)N[C@H](C#N)Cc2ccc(-c3ccc(C#N)cc3)cc2)CNC1` [Example 11, (S)-N-(1-cyano-2-(4′-cyano-[1,1′-biphenyl]-4-yl)ethyl)-3-ethoxyazetidine-3-carboxamide], which IC50 is on record?
Answer: The IC50 was 10 to 100 nM.

Question: With `COC1(C(=O)N[C@H](C#N)Cc2ccc(-c3ccc(C#N)cc3)cc2F)CNC1` [Example 12, (S)-N-(1-cyano-2-(4′-cyano-3-fluoro-[1,1′-biphenyl]-4-yl)ethyl)-3-methoxyazetidine-3-carboxamide] as the compound, how does the IC50 read?
Answer: Its IC50 is 10 to 100 nM.

Question: With `N#Cc1ccc(-c2ccc(C[C@@H](C#N)NC(=O)C3(C(F)F)CNC3)c(F)c2)cc1` [Example 13, (S)-N-(1-cyano-2-(4′-cyano-3-fluoro-[1,1′-biphenyl]-4-yl)ethyl)-3-(difluoromethyl)azetidine-3-carboxamide] as the compound, how does the IC50 read?
Answer: The IC50 was 10 to 100 nM.

Question: Which IC50 does the source give for `Cn1c(=O)oc2ccc(-c3ccc(C[C@@H](C#N)NC(=O)C4(C(F)F)CNC4)cc3)cc21` [Example 14, (S)-N-(1-cyano-2-(4-(3-methyl-2-oxo-2,3-dihydrobenzo[d]oxazol-5-yl)phenyl)ethyl)-3-(difluoromethyl)azetidine-3-carboxamide] here?
Answer: Its IC50 is 10 to 100 nM.

Question: For `N#Cc1ccc(-c2ccc(C[C@@H](C#N)NC(=O)C3(C(F)(F)F)CNC3)cc2)cc1` [Example 17, (S)-N-(1-cyano-2-(4′-cyano-[1,1′-biphenyl]-4-yl)ethyl)-3-(trifluoromethyl)azetidine-3-carboxamide], which IC50 is on record?
Answer: Its IC50 is 10 to 100 nM.

Question: With `CSC1(C(=O)N[C@H](C#N)Cc2ccc(-c3ccc(C#N)cc3)cc2)CNC1` [Example 18, (S)-N-(1-cyano-2-(4′-cyano-[1,1′-biphenyl]-4-yl)ethyl)-3-(methylthio)azetidine-3-carboxamide] as the compound, how does the IC50 read?
Answer: The IC50 was 10 to 100 nM.

Question: How did the IC50 turn out when `N#Cc1ccc(-c2ccc(C[C@@H](C#N)NC(=O)C3(Cc4ccccc4)CNC3)cc2)cc1` [Example 20, (S)-3-benzyl-N-(1-cyano-2-(4′-cyano-[1,1′-biphenyl]-4-yl)ethyl)azetidine-3-carboxamide] was run?
Answer: Its IC50 is 1000 to 10000 nM.

Question: Which IC50 does the source give for `N#Cc1ccc(-c2ccc(C[C@@H](C#N)NC(=O)C3(Oc4ccccc4)CNC3)cc2)cc1` [Example 21, (S)-N-(1-cyano-2-(4′-cyano-[1,1′-biphenyl]-4-yl)ethyl)-3-phenoxyazetidine-3-carboxamide] here?
Answer: The IC50 was 1000 to 10000 nM.

Question: For `COC1(C(=O)N[C@H](C#N)Cc2ccc(-c3ccc4c(c3)N(C)C(=O)C4)cc2)CNC1` [Example 22, (S)-N-(1-cyano-2-(4-(1-methyl-2-oxoindolin-6-yl)phenyl)ethyl)-3-methoxyazetidine-3-carboxamide], which IC50 is on record?
Answer: The IC50 was 10 to 100 nM.

Question: How did the IC50 turn out when `N#Cc1ccc(-c2ccc(C[C@@H](C#N)NC(=O)C3CN(C4COC4)C3)cc2)cc1` [Example 23, (S)-N-(1-cyano-2-(4′-cyano-[1,1′-biphenyl]-4-yl)ethyl)-1-(oxetan-3-yl)azetidine-3-carboxamide] was run?
Answer: Its IC50 is 1000 to 10000 nM.

Same assay, conditions: human recombinant DPP1 isolated enzyme assay; read-out: pIC50 on DPP1 (converted)

Question: How did the IC50 turn out when `N#Cc1ccc(-c2ccc(C[C@@H](C#N)NC(=O)C3CNC3)cc2)cc1` [Example 9, (S)-N-(1-cyano-2-(4′-cyano-[1,1′-biphenyl]-4-yl)ethyl)azetidine-3-carboxamide] was run?
Answer: The IC50 was 1000 to 10000 nM.
